Measurements as given in patent EP4737445A1, “NOVEL SATURATED HETEROCYCLE-SUBSTITUTED HETEROARYL-CARBONOHYDRAZONOYL DICYANIDE COMPOUND AND USE THEREOF” (Korea Institute of Science and Technology, priority 2023, dated 2025).

Experiments:
Format in all cases: in vitro ADME
[1] = target: T1, CYP1A2 (Homo sapiens, UniProt P05177); assay: CYP isoenzyme activity inhibition in human liver microsomes, CYP1A2; settings: 10 µM compound; human liver microsomes 0.25 mg/mL; relative to control without compound
T1 construct: human liver microsomes (0.25 mg/mL); from tissue; host or cells: human liver microsomes
T1 sequence (P05177 1-516): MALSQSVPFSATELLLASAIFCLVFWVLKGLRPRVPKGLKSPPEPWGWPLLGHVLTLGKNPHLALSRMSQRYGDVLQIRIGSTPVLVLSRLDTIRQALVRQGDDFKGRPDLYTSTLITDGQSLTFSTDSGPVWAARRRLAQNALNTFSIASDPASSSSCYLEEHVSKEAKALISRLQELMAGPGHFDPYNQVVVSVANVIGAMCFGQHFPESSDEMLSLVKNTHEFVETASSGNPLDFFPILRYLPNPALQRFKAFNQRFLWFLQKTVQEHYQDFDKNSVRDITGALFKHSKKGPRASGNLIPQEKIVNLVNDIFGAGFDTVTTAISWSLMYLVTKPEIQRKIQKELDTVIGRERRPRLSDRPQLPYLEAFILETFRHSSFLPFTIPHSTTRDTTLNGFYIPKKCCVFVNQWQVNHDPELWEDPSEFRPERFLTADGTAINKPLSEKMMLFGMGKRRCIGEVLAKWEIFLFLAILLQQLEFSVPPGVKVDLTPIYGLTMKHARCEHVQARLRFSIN
Method: (§1) The CYP isoenzyme activity inhibitory effect by the compounds prepared according to Examples 1 to 46 was confirmed. Specifically, human liver microsomes (0.25 mg/mL), 0.1 M phosphate buffer solution (pH 7.4), a substrate drug cocktail of five drug metabolizing enzymes (Phenacetin 50 µM, Diclofenac 10 µM, S-mephenytoin 100 µM, Dextromethorphan 5 µM, and Midazolam 2.5 µM), and the compounds were added at concentrations of 0 or 10 µM, respectively, and pre-incubated at 37°C for 5 minutes, and then NADPH generation system solution was added and incubated at 37°C for an additional 15 minutes. Thereafter, an acetonitrile solution containing an internal standard (Terfenadine) was added to terminate the reaction, and after centrifugation for 5 minutes (14,000 rpm, 4°C), the supernatant was injected into an LC-MS/MS system to simultaneously analyze the metabolites of the substrate drugs, thereby evaluating the drug metabolizing enzyme inhibitory activity.
(§2) The metabolites of each CYP isoenzyme marker drug generated through the reaction were analyzed using a Shimadzu Nexera XR system and TSQ vantage (Thermo). A Kinetex C18 (2.1 × 100 mm, 2.6 µm, particle size; Phenomenex, USA) was used as the HPLC column, and (A) distilled water containing 0.1% formic acid and (B) acetonitrile containing 0.1% formic acid were used as mobile phases, and a gradient program as shown in Table 6 below was applied.
(§3) The generated metabolites were quantified using MRM (Multiple Reaction Monitoring) quantitative mode, and Xcalibur (version 1.6.1) was used for data analysis. To show the CYP isoenzyme activity inhibitory effect of the novel compounds prepared according to the Examples of the disclosure, the % activity of CYP isoenzymes relative to the control group without compound addition is shown in Table 6 below. Additionally, to confirm the difference in effect according to substituents, Comparative Compounds 1 and 5, which are two compounds that share a similar parent nucleus structure with Compounds 1 to 46 of the disclosure while Cy is substituted with aromatic heteroaryl instead of saturated heterocyclyl, were selected as comparative compounds and their activities are shown together.

[2] = Liver microsomal stability, rat; settings: 1 µM compound; 0.5 mg/mL microsomes; NADPH; 30 minutes at 37°C
Method: Liver microsomal stability by the compounds prepared according to Examples 1 to 46 was confirmed. Specifically, four types of liver microsomes (human, dog, rat, and mouse each at 0.5 mg/mL), 0.1 M phosphate buffer solution (pH 7.4), and the compounds at 1 µM concentration were added and pre-incubated at 37°C for 5 minutes, and then NADPH generation system solution was added and incubated at 37°C for an additional 30 minutes. Thereafter, an acetonitrile solution containing an internal standard (chloropropamide) was added to terminate the reaction, and after centrifugation for 5 minutes (14,000 rpm, 4°C), the supernatant was injected into an LC-MS/MS system to analyze the substrate drug, thereby evaluating the metabolic stability of 8 compounds.
The amount of remaining substrate through the reaction was analyzed using a Shimadzu Nexera XR system and TSQ vantage (Thermo). A Kinetex XB-C18 (2.1 × 100 mm, 2.6 µm, particle size; Phenomenex, USA) was used as the HPLC column, and (A) distilled water containing 0.1% formic acid and (B) acetonitrile containing 0.1% formic acid were used as mobile phases. Analyst software (version 1.6.3) and Xcalibur (version 1.6.1) were used for data analysis. The calculated results are shown in Table 5 below: Liver microsomal stability data of novel compounds from […] (human, rat, and mouse).

[3] = target: T2, CYP3A4 (Homo sapiens, UniProt P08684); assay: CYP isoenzyme activity inhibition in human liver microsomes, CYP3A4; settings: 10 µM compound; human liver microsomes 0.25 mg/mL; relative to control without compound
T2 construct: human liver microsomes (0.25 mg/mL); from tissue; host or cells: human liver microsomes
Method: as §1, §2, §3

T2 sequence (P08684 whole entry): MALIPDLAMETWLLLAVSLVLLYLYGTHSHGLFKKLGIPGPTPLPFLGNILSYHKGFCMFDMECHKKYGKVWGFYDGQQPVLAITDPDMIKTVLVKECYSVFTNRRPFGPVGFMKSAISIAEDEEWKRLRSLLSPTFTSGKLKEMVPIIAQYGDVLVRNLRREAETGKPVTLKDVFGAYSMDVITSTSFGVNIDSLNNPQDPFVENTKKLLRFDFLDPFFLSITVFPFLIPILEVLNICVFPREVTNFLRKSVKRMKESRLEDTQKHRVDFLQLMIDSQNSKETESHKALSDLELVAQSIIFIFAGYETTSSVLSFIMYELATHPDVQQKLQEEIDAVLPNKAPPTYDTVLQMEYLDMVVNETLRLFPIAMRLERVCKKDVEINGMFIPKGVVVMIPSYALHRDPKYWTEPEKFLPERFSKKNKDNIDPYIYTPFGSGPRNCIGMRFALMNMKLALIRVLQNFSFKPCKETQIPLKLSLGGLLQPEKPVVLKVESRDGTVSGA

| Structure (SMILES) | CYP1A2 (% activity) [1] [% activity] | Rat microsomes (% remaining) [2] [% remaining] | CYP3A4 (% activity) [3] [% activity] |
| --- | --- | --- | --- |
| N#CC(C#N)=NNc1ccc2oc(N3CCOCC3)nc2c1 [Compound 3, (2-morpholinobenzo[d]oxazol-5-yl)carbonohydrazonoyl dicyanide] | 99.9 | 73.0 | > 100 |
| N#CC(C#N)=NNc1ccc2nc(N3CCOCC3)oc2c1 [Compound 4, (2-morpholinobenzo[d]oxazol-6-yl)carbonohydrazonoyl dicyanide] | 86.8 | 80.9 | 94 |
| CC1COCCN1c1nc2ccc(NN=C(C#N)C#N)cc2o1 (centres unmarked) [Compound 16, (2-(3-methylmorpholino)benzo[d]oxazol-6-yl)carbonohydrazonoyl dicyanide] | 99.9 | 49.6 | 96.7 |
| CC1COCCN1c1nc2ccc(NN=C(C#N)C#N)cc2s1 (centres unmarked) [Compound 13, (2-(3-methylmorpholino)benzo[d]thiazol-6-yl)carbonohydrazonoyl dicyanide] | 83 | 47.7 | 84.8 |
| N#CC(C#N)=NNc1ccc2nc(N3C4CCC3COC4)oc2c1 [Compound 20, (2-(3-oxa-8-azabicyclo[3.2.1]octan-8-yl)benzo[d]oxazol-6-yl)carbonohydrazonoyl dicyanide] | 55.6 | 82.9 | 55.4 |
| Cn1c(N2C3CCC2COC3)nc2ccc(NN=C(C#N)C#N)cc21 [Compound 34, (2-(3-oxa-8-azabicyclo[3.2.1]octan-8-yl)-1-methyl-1H-benzo[d]imidazol-6-yl)carbonohydrazonoyl dicyanide] | 85.8 | 97.1 | 84.3 |
| Cn1c(N2C3CCC2COC3)nc2cc(NN=C(C#N)C#N)ccc21 [Compound 35, (2-(3-oxa-8-azabicyclo[3.2.1]octan-8-yl)-1-methyl-1H-benzo[d]imidazol-5-yl)carbonohydrazonoyl dicyanide] | 81.5 | 74.1 | 86.1 |
| Cn1c(N2CCOCC2)nc2cc(NN=C(C#N)C#N)ccc21 [Compound 6, (1-methyl-2-morpholino-1H-benzo[d]imidazol-5-yl)carbonohydrazonoyl dicyanide] | 92.3 | 66.1 | 96.7 |
| N#CC(C#N)=NNc1ccc2sc(N3CCOCC3)nc2c1 [Compound 1, (2-morpholinobenzo[d]thiazol-5-yl)carbonohydrazonoyl dicyanide] | 80.2 | 2.1 | 95.5 |
| N#CC(C#N)=NNc1ccc2nc(N3CC[C@@H](F)C3)oc2c1 [Compound 41, (R)-(2-(3-fluoropyrrolidin-1-yl)benzo[d]oxazol-6-yl)carbonohydrazonoyl dicyanide] | 71.9 | 19.0 | 86.5 |
| CC(=O)N1CCN(c2nc3ccc(NN=C(C#N)C#N)cc3o2)CC1 [Compound 31, (2-(4-acetylpiperazin-1-yl)benzo[d]oxazol-6-yl)carbonohydrazonoyl dicyanide] | 92.7 | 88.3 | 88.3 |
| N#CC(C#N)=NNc1ccc2nc(NC(=O)N3CCOCC3)sc2c1 [Compound 38, (2-(morpholine-4-carboxamido)benzo[d]thiazol-6-yl)carbonohydrazonoyl dicyanide] | 83.9 | 96.0 | 86.7 |
| CC(C)N1CCN(c2nc3ccc(NN=C(C#N)C#N)cc3s2)CC1 [Compound 27, (2-(4-isopropylpiperazin-1-yl)benzo[d]thiazol-6-yl)carbonohydrazonoyl dicyanide] | 95.1 | – | 59.8 |
| CN1CCN(c2nc3ccc(NN=C(C#N)C#N)cc3s2)CC1 [Compound 8, (2-(4-methylpiperazin-1-yl)benzo[d]thiazol-6-yl)carbonohydrazonoyl dicyanide] | 91.8 | 76.6 | 95 |
| CC(=O)N1CCN(c2nc3ccc(NN=C(C#N)C#N)cc3s2)CC1 [Compound 30, (2-(4-acetylpiperazin-1-yl)benzo[d]thiazol-6-yl)carbonohydrazonoyl dicyanide] | 88.9 | 91.9 | 74.6 |
| CN1CCN(c2nc3ccc(NN=C(C#N)C#N)cc3o2)CC1 [Compound 14, (2-(4-methylpiperazin-1-yl)benzo[d]oxazol-6-yl)carbonohydrazonoyl dicyanide] | 89.7 | – | 96.8 |
| CC(C)N1CCN(c2nc3ccc(NN=C(C#N)C#N)cc3o2)CC1 [Compound 28, (2-(4-isopropylpiperazin-1-yl)benzo[d]oxazol-6-yl)carbonohydrazonoyl dicyanide] | 95.5 | 50.7 | 87.8 |
| CC1CN(c2nc3ccc(NN=C(C#N)C#N)cc3o2)CC(C)O1 (centres unmarked) [Compound 18, (2-(2,6-dimethylmorpholino)benzo[d]oxazol-6-yl)carbonohydrazonoyl dicyanide] | 98.9 | 72.9 | 94.6 |
| CC1CN(c2nc3ccc(NN=C(C#N)C#N)cc3s2)CC(C)O1 (centres unmarked) [Compound 10, (2-(2,6-dimethylmorpholino)benzo[d]thiazol-6-yl)carbonohydrazonoyl dicyanide] | 68.4 | 84.8 | 74.5 |
| N#CC(C#N)=NNc1ccc2nc(N3CCNCC3)oc2c1 [Compound 25, (2-(piperazin-1-yl)benzo[d]oxazol-6-yl)carbonohydrazonoyl dicyanide] | 87 | – | 91.5 |
| N#CC(C#N)=NNc1ccc2nc(N3CCNCC3)sc2c1 [Compound 24, (2-(piperazin-1-yl)benzo[d]thiazol-6-yl)carbonohydrazonoyl dicyanide] | 65.1 | – | 74.7 |
